Measured values as given in the supplement of paper PMC6335503.
± gives the standard deviation of the averaged measurements.

Assays:
Assay in all cases: cell viability, percent of DMSO control (CellTiter-Glo); higher = more viable cells
Conditions in all cases: 72 h
[1] = test system: DFTD cell line T2 (05/2569)
Method: (§1)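 Eight-point dose titration of 41 screen hits in triplicate wells on four Tasmanian devil DFTD tumour cell lines (T1-T4) and devil fibroblasts, 384-well plates. Viability was read by CellTiter-Glo (ATP) after 72 h at 37 °C. Percent of control per plate: DMSO wells = 100%, positive-control wells = 0%.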

[2] = test system: DFTD cell line T1 (06/2887)
Method: as §1

[3] = test system: DFTD cell line T3 (06/0368)
Method: as §1

[4] = test system: DFTD cell line T4 (07/0192)
Method: as §1

Structure (SMILES) | cell viability ([1]; 0.00617 µM) | cell viability ([1]; 0.0185 µM) | cell viability ([1]; 0.0556 µM) | cell viability ([1]; 0.166667 µM) | cell viability ([1]; 0.5 µM) | cell viability ([1]; 1.5 µM) | cell viability ([1]; 4.5 µM) | cell viability ([1]; 13.5 µM) | cell viability ([2]; 0.00617 µM) | cell viability ([2]; 0.0185 µM) | cell viability ([2]; 0.0556 µM) | cell viability ([2]; 0.166667 µM) | cell viability ([2]; 0.5 µM) | cell viability ([2]; 1.5 µM) | cell viability ([2]; 4.5 µM) | cell viability ([2]; 13.5 µM) | cell viability ([3]; 0.00617 µM) | cell viability ([3]; 0.0185 µM) | cell viability ([3]; 0.0556 µM) | cell viability ([3]; 0.166667 µM) | cell viability ([3]; 0.5 µM) | cell viability ([3]; 1.5 µM) | cell viability ([3]; 4.5 µM) | cell viability ([3]; 13.5 µM) | cell viability ([4]; 0.00617 µM) | cell viability ([4]; 0.0185 µM) | cell viability ([4]; 0.0556 µM) | cell viability ([4]; 0.166667 µM) | cell viability ([4]; 0.5 µM) | cell viability ([4]; 1.5 µM) | cell viability ([4]; 4.5 µM) | cell viability ([4]; 13.5 µM)
Cn1nc(-c2ccccn2)nc2c(=O)n(C)c(=O)nc1-2 | 135 ± 19% | 102 ± 31% | 104 ± 19% | 124 ± 18% | 132 ± 42% | 84.5 ± 6.9% | -4.38 ± 1.7% | -0.281 ± 3.3% | 153 ± 34% | 70.2 ± 59% | 125 ± 22% | 132 ± 5% | 135 ± 44% | 81.7 ± 2.8% | -6.25 ± 9.7% | 0.0591 ± 4.2% | 117 ± 31% | 94.9 ± 27% | 119 ± 9.9% | 126 ± 16% | 107 ± 26% | 72.9 ± 4.2% | -7.67 ± 4% | -1.39 ± 4.7% | 141 ± 24% | 92.9 ± 34% | 114 ± 12% | 109 ± 11% | 118 ± 31% | 74.2 ± 14% | -7.19 ± 8.8% | 0.999 ± 4.1%
C=CC(=O)N1CCC[C@@H](n2nc(-c3ccc(Oc4ccccc4)cc3)c3c(N)ncnc32)C1 | 103 ± 33% | 124 ± 36% | 83.4 ± 14% | 51.2 ± 12% | 32.3 ± 1.1% | 29.5 ± 6.4% | 30 ± 9.6% | 17.3 ± 12% | 112 ± 37% | 123 ± 32% | 71.6 ± 14% | 37.3 ± 6.5% | 26.6 ± 4.3% | 23.2 ± 11% | 28.6 ± 13% | 14 ± 10% | 120 ± 38% | 94.2 ± 29% | 95.2 ± 22% | 65.1 ± 9.7% | 38.9 ± 6.9% | 36.7 ± 11% | 34.5 ± 8.3% | 24.5 ± 11% | 114 ± 25% | 85 ± 27% | 79.7 ± 14% | 51.3 ± 9.8% | 22.6 ± 4.5% | 20.4 ± 12% | 21.4 ± 8.5% | 12.3 ± 8.3%
O=c1c(=NNc2nnn[nH]2)c(=O)c2ccccc12 | 114 ± 14% | 133 ± 22% | 102 ± 25% | 96.4 ± 15% | 89.2 ± 11% | 1.91 ± 9.7% | -2.74 ± 7.9% | -6.89 ± 10% | 111 ± 30% | 134 ± 16% | 108 ± 24% | 109 ± 13% | 100 ± 8.9% | 6.85 ± 14% | -3.59 ± 8.9% | -9.34 ± 11% | 123 ± 33% | 108 ± 57% | 105 ± 18% | 110 ± 22% | 99.8 ± 8.1% | -0.871 ± 9.3% | -0.369 ± 11% | -6.58 ± 12% | 112 ± 34% | 109 ± 63% | 107 ± 15% | 113 ± 5.9% | 99.9 ± 11% | -4.87 ± 8% | -0.683 ± 8.2% | -9.39 ± 10%
CCN1CCN(Cc2ccc(-c3cc4c(N[C@H](C)c5ccccc5)ncnc4[nH]3)cc2)CC1 [AEE788] | 77.9 ± 14% | 96 ± 16% | 123 ± 38% | 85.2 ± 15% | 46.3 ± 12% | 25.8 ± 7.8% | 21 ± 7% | 6.37 ± 3.9% | 77.9 ± 22% | 87.5 ± 17% | 119 ± 44% | 61.2 ± 11% | 35.4 ± 11% | 23.9 ± 7.3% | 29.4 ± 13% | 17.5 ± 3.5% | 93.5 ± 15% | 110 ± 21% | 123 ± 27% | 77.2 ± 11% | 49.8 ± 13% | 34.2 ± 11% | 36.4 ± 13% | 28.6 ± 4.9% | 99.1 ± 11% | 90 ± 14% | 104 ± 35% | 83.8 ± 10% | 43.4 ± 4.7% | 25.1 ± 11% | 24.8 ± 12% | 23.4 ± 5.6%
COc1cc2ncnc(Nc3cccc(Cl)c3)c2cc1OC [AG-1478] | 99.4 ± 20% | 105 ± 21% | 108 ± 13% | 114 ± 12% | 81 ± 12% | 49.2 ± 11% | 40.2 ± 16% | 34 ± 5.2% | 117 ± 7.2% | 115 ± 7.9% | 106 ± 36% | 109 ± 19% | 54.7 ± 7.8% | 39.2 ± 9.1% | 32.7 ± 11% | 28.9 ± 9.3% | 125 ± 31% | 105 ± 3.8% | 103 ± 18% | 117 ± 16% | 83.2 ± 17% | 63.5 ± 11% | 53.2 ± 13% | 46.9 ± 9.5% | 119 ± 21% | 110 ± 20% | 104 ± 24% | 128 ± 18% | 89.3 ± 22% | 68.1 ± 18% | 38 ± 7% | 32.3 ± 11%
COc1cc2ncnc(Nc3cccc(Cl)c3F)c2cc1OC(=O)N1CCN(C)C[C@H]1C [AZD3759] | 97.6 ± 42% | 107 ± 12% | 131 ± 45% | 121 ± 35% | 81.8 ± 18% | 48.9 ± 4.4% | 22.9 ± 7.3% | 32 ± 4.3% | 96.9 ± 29% | 110 ± 19% | 113 ± 33% | 95.3 ± 21% | 59.1 ± 10% | 38.1 ± 7.5% | 22.6 ± 2.7% | 31.5 ± 6.1% | 96.2 ± 18% | 89.5 ± 4.7% | 122 ± 15% | 107 ± 34% | 76.4 ± 20% | 52.8 ± 6.2% | 37.7 ± 7% | 41.7 ± 7.3% | 102 ± 12% | 96.5 ± 23% | 111 ± 24% | 109 ± 10% | 78.4 ± 14% | 55 ± 5.2% | 28.7 ± 6.5% | 25 ± 3.8%
CNC(=O)CN1CCC(Oc2cc3c(Nc4cccc(Cl)c4F)ncnc3cc2OC)CC1 [AZD8931 (Sapitinib)] | 123 ± 62% | 111 ± 22% | 98.5 ± 55% | 62.1 ± 16% | 46.5 ± 18% | 27 ± 13% | 19.7 ± 17% | 24.2 ± 2.2% | 116 ± 38% | 104 ± 20% | 84 ± 28% | 37.9 ± 12% | 24.9 ± 7.9% | 22.8 ± 14% | 19.1 ± 16% | 21.6 ± 6.3% | 112 ± 38% | 95.2 ± 19% | 102 ± 44% | 55.9 ± 17% | 43.4 ± 17% | 29 ± 7.6% | 24.9 ± 10% | 32.6 ± 2.4% | 107 ± 17% | 111 ± 31% | 80.8 ± 34% | 59.7 ± 10% | 31.9 ± 5% | 20.9 ± 16% | 14 ± 10% | 8.86 ± 12%
